In patent US20060281768A1, “THIENOPYRIMIDINE AND THIENOPYRIDINE KINASE MODULATORS” (priority 2005, published 2006):

Legend:
FLT3 571-993 = molecular target: T1, FLT3 571-993 (Homo sapiens, UniProt P36888); experiment: FLT3 Fluorescence Polarization Kinase Assay; format: biochemical; settings: 10 nM FLT3 571-993, 150 uM ATP, 30 minutes; uncertainty +10%
T1 construct: 10 nM FLT3 571-993, 20 ug/mL poly Glu4Tyr
T1 sequence (P36888 571-993): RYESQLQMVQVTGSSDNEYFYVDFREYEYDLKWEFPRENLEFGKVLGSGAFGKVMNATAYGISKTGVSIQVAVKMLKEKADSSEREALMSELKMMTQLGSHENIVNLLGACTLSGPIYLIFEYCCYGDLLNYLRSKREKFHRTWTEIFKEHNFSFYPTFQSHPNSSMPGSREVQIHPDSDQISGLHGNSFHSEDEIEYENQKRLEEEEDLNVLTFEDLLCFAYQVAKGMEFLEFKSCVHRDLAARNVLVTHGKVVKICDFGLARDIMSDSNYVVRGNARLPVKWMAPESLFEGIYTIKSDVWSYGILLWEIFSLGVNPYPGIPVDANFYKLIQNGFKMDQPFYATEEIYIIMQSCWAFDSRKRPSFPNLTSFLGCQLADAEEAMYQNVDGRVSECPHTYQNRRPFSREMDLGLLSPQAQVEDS
Procedure: The FLT3 FP assay utilizes the fluorescein-labeled phosphopeptide and the anti-phosphotyrosine antibody included in the Panvera Phospho-Tyrosine Kinase Kit (Green) supplied by Invitrogen. When FLT3 phosphorylates poly Glu4Tyr, the fluorescein-labeled phosphopeptide is displaced from the anti-phosphotyrosine antibody by the phosphorylated poly Glu4Tyr, thus decreasing the FP value. The FLT3 kinase reaction is incubated at room temperature for 30 minutes under the following conditions: 10 nM FLT3 571-993, 20 ug/mL poly Glu4Tyr, 150 uM ATP, 5mM MgCl2, 1% compound in DMSO. The kinase reaction is stopped with the addition of EDTA. The fluorescein-labeled phosphopeptide and the anti-phosphotyrosine antibody are added and incubated for 30 minutes at room temperature.
All data points are an average of triplicate samples. Inhibition and IC50 data analysis was done with GraphPad Prism using a non-linear regression fit with a multiparamater, sigmoidal dose-response (variable slope) equation.

MV4-11 cells = experiment: Growth inhibition of MV4-11 cells (CellTiterGlo); format: cell-based; settings: Homo sapiens, 72 hours, uncertainty +20%
Procedure: FLT3 specific growth inhibition was measured in the leukemic cell line MV4-11 (ATCC Number: CRL-9591). […] MV4-11 cells cannot grow and survive without active FLT31TD.
To measure proliferation inhibition by test compounds the luciferase based CellTiterGlo reagent (Promega) was used. Cells are plated at 10,000 cells per well in 100ul of in RPMI media containing penn/strep, 10% FBS and lng/ml GM-CSF or 1 ng/ml IL-3 for MV4-11 and Baf3 cells respectively.
Compound dilutions or 0.1% DMSO (vehicle control) are added to cells and the cells are allowed to grow for 72 hours at standard cell growth conditions (37° C., 5% CO2). Total cell growth is quantified as the difference in luminescent counts (relative light units, RLU) of cell number at Day 0 compared to total cell number at Day 3 (72 hours of growth and/or compound treatment). One hundred percent inhibition of growth is defined as an RLU equivalent to the Day 0 reading. Zero percent inhibition is defined as the RLU signal for the DMSO vehicle control at Day 3 of growth. All data points are an average of triplicate samples. […] Inhibition and IC50 data analysis was done with GraphPad Prism using a non-linear regression fit with a multiparamater, sigmoidal dose-response (variable slope) equation.
MV-411 cells expressed the FLT3 internal tandem duplication mutation, and thus were entirely dependent upon FLT3 activity for growth. […] In contrast, the Baf3 cell proliferations is driven by the cytokine IL-3 and these cells are used as a non-specific toxicity control for test compounds.

wild-type FLT3 receptor = molecular target: T2, wild-type FLT3 receptor (Homo sapiens, UniProt P36888); experiment: Cell-Based FLT3 Receptor Elisa (Baf3 FLT3 cells, FLT3 phosphorylation); settings: Flt ligand stimulated FLT3 phosphorylation, 1 hour compound incubation, uncertainty +20%
T2 construct: host or cells: Baf3 (murine B cell lymphoma line)
T2 sequence (P36888 27-993): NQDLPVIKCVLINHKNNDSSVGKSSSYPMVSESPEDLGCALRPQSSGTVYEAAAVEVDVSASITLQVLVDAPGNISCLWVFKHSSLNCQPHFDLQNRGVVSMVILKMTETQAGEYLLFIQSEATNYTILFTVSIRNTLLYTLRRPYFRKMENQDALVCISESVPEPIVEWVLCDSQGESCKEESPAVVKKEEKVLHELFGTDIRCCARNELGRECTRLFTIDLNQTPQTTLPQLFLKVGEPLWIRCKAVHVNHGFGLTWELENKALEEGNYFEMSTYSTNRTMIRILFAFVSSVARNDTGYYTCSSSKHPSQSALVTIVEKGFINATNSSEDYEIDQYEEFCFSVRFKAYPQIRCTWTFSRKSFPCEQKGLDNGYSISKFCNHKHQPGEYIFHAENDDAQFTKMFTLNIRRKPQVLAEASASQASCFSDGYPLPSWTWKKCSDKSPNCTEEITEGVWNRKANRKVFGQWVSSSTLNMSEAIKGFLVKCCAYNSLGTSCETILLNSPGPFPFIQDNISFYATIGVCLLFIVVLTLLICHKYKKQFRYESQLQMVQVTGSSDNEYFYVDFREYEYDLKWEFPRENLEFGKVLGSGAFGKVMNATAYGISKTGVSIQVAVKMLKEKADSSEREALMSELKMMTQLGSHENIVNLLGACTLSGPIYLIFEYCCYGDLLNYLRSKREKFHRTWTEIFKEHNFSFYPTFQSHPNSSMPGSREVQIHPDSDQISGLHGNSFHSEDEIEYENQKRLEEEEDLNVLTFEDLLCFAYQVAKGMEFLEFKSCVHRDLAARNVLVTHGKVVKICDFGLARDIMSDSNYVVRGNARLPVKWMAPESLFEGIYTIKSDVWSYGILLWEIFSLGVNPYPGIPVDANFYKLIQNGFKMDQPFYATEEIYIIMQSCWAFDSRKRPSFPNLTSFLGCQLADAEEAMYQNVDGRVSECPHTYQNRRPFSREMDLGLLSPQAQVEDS
Procedure: Cells overexpressing the FLT3 receptor were obtained from Dr. Michael Heinrich (Oregon Health and Sciences University). The Baf3 FLT3 cell lines were created by stable transfection of parental Baf3 cells (a murine B cell lymphoma line dependent on the cytokine IL-3 for growth) with wild-type FLT3. Cells were selected for their ability to grow in the absence of IL-3 and in the presence of FLT3 ligand.
Baf3 cells were maintained in RPMI 1640 with 10%FCS, penn/strep and 10 ng/mL FLT ligand at 37° C., 5% CO2. To measure direct inhibition of the wild-type FLT3 receptor activity and phosphorylation a sandwich ELISA method was developed similar to those developed for other RTKs (3,4). 200ul of Baf3FLT3 cells (1×10^6/ml) were plated in 96 well dishes in RPM11640 with 0.5% serum and 0.01ng/ml IL-3 for 16 hours prior to 1 hour compound or DMSO vehicle incubation. Cells were treated with 100 ng/ml Flt ligand (R&D Systems Cat# 308-FK) for 10 min. at 37° C. Cells were pelleted, washed and lysed in 100ul HNTG buffer (50 mM Hepes, 150 mM NaCl, 10% Glycerol, 1% Triton -X-100, 10 mM NaF, 1 mM EDTA, 1.5 mM MgCl2, 10 mM NaPyrophosphate) supplemented with phosphatase (Sigma Cat# P2850) and protease inhibitors (Sigma Cat #P8340). Lysates were cleared by centrifugation at 1000×g for 5 minutes at 4° C. Cell lysates were transferred to white wall 96 well microtiter (Costar #9018) plates coated with 50ng/well anti-FLT3 antibody (Santa Cruz Cat# sc-480) and blocked with SeaBlock reagent (Pierce Cat#37527). Lysates were incubated at 4° C. for 2 hours. Plates were washed 3× with 200ul/well PBS/0.1% triton-X-100. Plates are then incubated with 1:8000 dilution of HRP-conjugated anti-phosphotyrosine antibody (Clone 4G10, Upstate Biotechnology Cat#16-105) for 1 hour at room temperature. Plates were washed 3× with 200ul/well PBS/0.1% triton-X-100. Signal detection with Super Signal Pico reagent (Pierce Cat#37070) was done according to manufacturer's instruction with a Berthold microplate luminometer. All data points are an average of triplicate samples. […] Inhibition and IC50 data analysis was done with GraphPad Prism using a non-linear regression fit with a multiparamater, sigmoidal dose-response (variable slope) equation.

Row | Compound | IC50 (FLT3 571-993) [nM] | IC50 (MV4-11 cells) [nM] | IC50 (wild-type FLT3 receptor) [nM]
1 | CC(C)c1ccc(NC(=O)NC2CCN(c3ncnc4sccc34)C2)cc1 (stereo not shown) [Compound 9, 1-(4-Isopropyl-phenyl)-3-(1-thieno [2,3-d]pyrimidin-4-yl-pyrrolidin-3-yl)-urea] | 41 | 1300 | 55
2 | CC(C)Oc1ccc(NC(=O)NC2CCN(c3ncnc4ccsc34)C2)cc1 (stereo not shown) [Compound 12, 1-(4-Isopropoxy-phenyl)-3-(1-thieno[3,2-d]pyrimidin-4-yl-pyrrolidin-3-yl)-urea] | 296 | 2500 | –
3 | O=C(Nc1ccc(OC2CCC2)nc1)NC1CCN(c2ncnc3ccsc23)C1 (stereo not shown) [Compound 15, 1-(6-Cyclobutoxy-pyridin-3-yl)-3-(1-thieno [3,2-d]pyrimidin-4-yl-pyrrolidin-3-yl)-urea] | – | 983 | 1900
4 | O=C(Nc1ccc(N2CCCC2)cc1)NC1CCN(c2ncnc3ccsc23)C1 (stereo not shown) [Compound 19, 1-(4-Pyrrolidin-1-yl-phenyl)-3-(1-thieno [3,2-d]pyrimidin-4-yl-pyrrolidin-3-yl)-urea] | – | 850 | 2900
5 | O=C(Nc1ccc(OC2CCC2)nc1)OC1CCN(c2ncnc3ccsc23)C1 (stereo not shown) [Compound 25, (6-Cyclobutoxy-pyridin-3-yl)-carbamic acid 1-thieno[3,2-d]pyrimidin-4-yl-pyrrolidin-3-yl ester] | – | 345 | 1600
6 | O=C(Nc1ccc(Oc2ccccc2)cc1)OC1CCN(c2ncnc3ccsc23)C1 (stereo not shown) [Compound 26, (4-Phenoxy-phenyl)-carbamic acid 1-thieno[3,2-d]pyrimidin-4-yl-pyrrolidin-3-yl ester] | – | 953 | 390

The remaining molecules from weak to strong by IC50 (MV4-11 cells), led by results:

Row | IC50 (FLT3 571-993) [nM] | IC50 (MV4-11 cells) [nM] | IC50 (wild-type FLT3 receptor) [nM] | Compound
7 | 365 | 3600 | – | CC(C)Oc1ccc(NC(=O)NC2CCN(c3ncnc4sccc34)C2)cc1 (stereo not shown) [Compound 10, 1-(4-Isopropoxy-phenyl)-3-(1-thieno[2,3-d]pyrimidin-4-yl-pyrrolidin-3-yl)-urea]
8 | 64 | 1300 | 22 | CC(C)c1ccc(NC(=O)OC2CCN(c3ncnc4ccsc34)C2)cc1 (stereo not shown) [Compound 5, (4-Isopropyl-phenyl)-carbamic acid 1-thieno [3,2-d]pyrimidin-4-yl-pyrrolidin-3-yl ester]
9 | – | 881 | > 5000 | O=C(Nc1ccc(Oc2ccccc2)cc1)NC1CCN(c2ncnc3ccsc23)C1 (stereo not shown) [Compound 13, 1-(4-Phenoxy-phenyl)-3-(1-thieno [3,2-d]pyrimidin-4-yl-pyrrolidin-3-yl)-urea]
10 | – | 757 | 895 | CCN(CC)c1ccc(NC(=O)NC2CCN(c3ncnc4ccsc34)C2)cc1 (stereo not shown) [Compound 18, 1-(4-Diethylamino-phenyl)-3-(1-thieno [3,2-d]pyrimidin-4-yl-pyrrolidin-3-yl)-urea]
11 | 77 | 671 | 108 | CC(C)c1ccc(NC(=O)NC2CCN(c3ncnc4ccsc34)C2)cc1 (stereo not shown) [Compound 11, 1-(4-Isopropyl-phenyl)-3-(1-thieno [3,2-d]pyrimidin-4-yl-pyrrolidin-3-yl)-urea]
